Tested on: UACC-903
Experiment: Antitumor activity against human UACC-903 cells xenografted in Nude-Foxn1nu mouse assessed as reduction in tumor size after 24 hrs relative to control
Type: functional
Design: scale not given: the % may be the effect or the level left

[Se]=C=NCCCCc1ccccc1 [PHENYLBUTYL ISOSELENOCYANATE] gave an Activity of 77%.
